Measurements reported in publication PMC8297771 (PLoS Pathogens, 2021).

Key:
[1] = Hepatocyte stability determination; assay type: in vitro ADME; conditions: monkey and human hepatocytes
Protocol: Incubation was conducted in 96-well cell culture plate format. The plates were labeled as T0, T15, T30, T60, T90, T0-MC, T90-MC and Blank, respectively. All plates were pre-warmed for 10 to 20 mins at 37±1°C in an incubator of 5% CO2 and saturated humidity. The vials of cryopreserved SD rat, beagle dog, cynomolgus monkey and human hepatocyte were removed from the liquid nitrogen container and immediately immersed in a water bath (the setting temperature was 37°C) for approximately 90 secs to allow the ice pellets melted. The melted ice pellets were transferred into pre-warmed 40 mL of Thawing Medium tubes mixed well by gently inverting the tubes then centrifuged at 100 ×g for 5 mins at room temperature. The supernatants were discarded and cell pellets were re-suspended by adding appropriate volumes of pre-warmed WEM. The cells viability of each species was determined using Trypan Blue exclusion. The viabilities of rat, dog, cynomolgus and human hepatocytes were 89.0%, 94.3%, 88.0% and 91.8%, respectively. Cells were finally diluted to 0.625×10^6 cells/mL with pre-warmed WEM. At each corresponding time point, the sample reactions were stopped by adding 150 μL of acetonitrile containing 200 ng/mL tolbutamide and 200 ng/mL labetalol as internal standards. All sample plates were thoroughly mixed and centrifuged at 3220 ×g for 20 mins. […]

[2] = Safety pharmacology: effects on the respiratory system in rats; assay type: in vivo; conditions: single oral 100, 300 and 600 mg/kg
Protocol: (§1) Effects on the Respiratory System in Rats (Study no. YL18404). Four groups of eight male rats were given a single oral administration of STP0404 at doses of 100, 300 and 600 mg/kg. STP0404 was administered as a suspension in 0.5% MC in a volume of 10 mL/kg. […] Measurements were conducted at pre-dosing and 0.5, 1, 3, 6 12 and 24 hrs post-dosing, and respiratory rate, tidal volume and minute volume were investigated (INA Research, Japan). Effects on the Central Nervous System in Rats (Study no. YL18405). Four groups of six male rats were given a single oral administration of STP0404 at doses of 0 (vehicle), 100, 300 and 600 mg/kg. The test article was administered as a suspension in 0.5% MC in a volume of 10 mL/kg. […] Blinded observations were conducted pre-dosing and 0.5, 1, 3, 6, 12 and 24 hrs post-dosing on rats body temperature, pupil size, landing foot-splay and grip strength in functional observational battery. Effects on the Cardiovascular System in Dogs (Study no. YL18406). STP0404 at dose levels of 30, 60 and 90 mg/kg were administered orally (by capsules) to four male Beagle dogs in a design with 7-day intervals between doses. Heart rate, blood pressure (systolic, diastolic and mean) and electrocardiographic (ECG) parameters (PR, QT and QTc intervals and QRS duration) were evaluated at pre-dosing and 0.5, 1, 2, 4, 8 and 24 hrs post-dosing. […]

[3] = Safety pharmacology: effects on the cardiovascular system in dogs; assay type: in vivo; conditions: oral 30, 60 and 90 mg/kg
Protocol: as §1

With `Cc1nc2c(c(C)c(C)n2Cc2cnn(C)c2)c(-c2ccc(Cl)cc2)c1[C@H](OC(C)(C)C)C(=O)O` [STP0404] the “metabolic stability in hepatocytes (in words)” value [1] was “much longer metabolic stability”, the “safety pharmacology concerns, respiratory system” value [2] was “did not induce any safety pharmacology concerns” and the “safety pharmacology concerns, cardiovascular system” value [3] was “did not induce any safety pharmacology concerns”.
